{
  "source": "paper doi:10.1101/2024.02.23.581731v1",
  "about": "(biorxiv, 2024)",
  "assay_type_in_all_cases": "cell-based",
  "key": {"h5-HT3AR [1]": {"target": "T1, h5-HT3AR (Homo sapiens, UniProt P46098, M204I)", "T1 sequence (P46098 24-478 M204I)": "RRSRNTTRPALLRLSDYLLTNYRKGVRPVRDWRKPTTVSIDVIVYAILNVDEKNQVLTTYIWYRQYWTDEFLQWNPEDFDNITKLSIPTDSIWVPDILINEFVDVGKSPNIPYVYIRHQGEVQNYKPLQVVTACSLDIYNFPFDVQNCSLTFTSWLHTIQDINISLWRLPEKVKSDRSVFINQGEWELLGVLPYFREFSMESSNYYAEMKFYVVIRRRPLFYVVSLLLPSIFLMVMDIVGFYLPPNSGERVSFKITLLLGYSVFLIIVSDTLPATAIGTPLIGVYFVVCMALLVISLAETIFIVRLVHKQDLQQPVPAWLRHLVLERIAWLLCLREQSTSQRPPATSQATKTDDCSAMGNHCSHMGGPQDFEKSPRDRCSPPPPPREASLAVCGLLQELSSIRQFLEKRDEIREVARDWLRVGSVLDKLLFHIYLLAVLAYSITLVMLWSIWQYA", "test": "FLIPR Blue membrane potential assay, inhibition of 5-HT response"}, "h5-HT3AR [2]": {"target": "T2, h5-HT3AR (Homo sapiens, UniProt P46098, M223D)", "T2 sequence (P46098 24-478 M223D)": "T1 sequence (P46098 24-478 M204I) with I181M, M200D", "test": "FLIPR Blue membrane potential assay, inhibition of 5-HT response"}, "gp5-HT3AR": {"target": "T3, gp5-HT3AR (Cavia porcellus, UniProt O70212)", "T3 sequence (O70212 20-490)": "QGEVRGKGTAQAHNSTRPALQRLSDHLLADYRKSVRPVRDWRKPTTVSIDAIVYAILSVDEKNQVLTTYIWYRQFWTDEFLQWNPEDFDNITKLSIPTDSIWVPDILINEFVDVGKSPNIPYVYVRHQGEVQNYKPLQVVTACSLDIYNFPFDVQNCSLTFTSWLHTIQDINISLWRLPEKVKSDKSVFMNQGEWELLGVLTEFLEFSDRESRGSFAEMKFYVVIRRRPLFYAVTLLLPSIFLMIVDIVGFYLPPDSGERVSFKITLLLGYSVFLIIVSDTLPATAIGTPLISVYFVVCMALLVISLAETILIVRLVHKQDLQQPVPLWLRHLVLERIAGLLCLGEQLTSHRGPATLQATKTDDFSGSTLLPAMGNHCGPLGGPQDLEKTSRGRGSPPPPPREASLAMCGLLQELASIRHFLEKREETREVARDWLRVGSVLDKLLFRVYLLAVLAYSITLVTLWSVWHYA", "test": "FLIPR Blue membrane potential assay, inhibition of 5-HT response"}, "h5-HT3AR [3]": {"target": "T4, h5-HT3AR (Homo sapiens, UniProt P46098, Y228S)", "T4 sequence (P46098 24-478 Y228S)": "T1 sequence (P46098 24-478 M204I) with I181M, Y205S", "test": "FLIPR Blue membrane potential assay, inhibition of 5-HT response"}, "h5-HT3AR [4]": {"target": "T5, h5-HT3AR (Homo sapiens, UniProt P46098, R200K)", "T5 sequence (P46098 24-478 R200K)": "T1 sequence (P46098 24-478 M204I) with R177K, I181M", "test": "FLIPR Blue membrane potential assay, inhibition of 5-HT response"}, "h5-HT3AR [5]": {"target": "T6, h5-HT3AR (Homo sapiens, UniProt P46098)", "T6 sequence (P46098 24-478)": "T1 sequence (P46098 24-478 M204I) with I181M", "test": "TEVC, Xenopus oocytes, activation"}},
  "note": "Positions count from the first letter of the chain named.",
  "data": [
    {"smiles": "Cc1ccc(Sc2ccccc2N2CCNCC2)c(C)c1", "note": "[vortioxetine]", "values": [
      {"measurement": "IC50", "setting": "h5-HT3AR [1]", "value": 0.073, "unit": "µM"},
      {"measurement": "IC50", "setting": "h5-HT3AR [2]", "value": 0.375, "unit": "µM"},
      {"measurement": "IC50", "setting": "gp5-HT3AR", "value": 2.35, "unit": "µM"},
      {"measurement": "IC50", "setting": "h5-HT3AR [3]", "value": 0.084, "unit": "µM"},
      {"measurement": "IC50", "setting": "h5-HT3AR [4]", "value": 0.094, "unit": "µM"},
      {"measurement": "EC50", "setting": "h5-HT3AR [5]", "value": 0.15, "unit": "µM"}
    ]}
  ]
}
